Laboratory results taken from ChEMBL document CHEMBL4130413, “1-Aryl-1H- and 2-aryl-2H-1,2,3-triazole derivatives blockade P2X7 receptor in vitro and inflammatory response in vivo” (Eur J Med Chem, 2017).

How the values were obtained:
[1] = molecular target: P2X purinoceptor 7 (Mus musculus) (UniProt Q9Z1M0); assay: Antagonist activity at P2X7 receptor in Swiss mouse peritoneal macrophages assessed as inhibition of ATP-induced propidium iodide uptake at 10 uM after 30 mins by FLIPR assay relative to 1 mM ATP
Peritoneal macrophage = assay: Toxicity in Swiss mouse peritoneal macrophages assessed as LDH release at 10 uM after 60 mins relative to 0.05% Triton X-100; assay type: cell-based; conditions: 1 h
[2] = molecular target: T1, P2X purinoceptor 7 (Homo sapiens) (UniProt Q99572); assay: Antagonist activity at human P2X7 receptor expressed in HEK293 cells assessed as inhibition of ATP-induced ethidium iodide uptake at 10 uM preincubated for 10 mins followed by ATP addition measured after 20 mins by FLIPR assay relative to 1 mM ATP; assay type: cell-based
T1 sequence (whole entry): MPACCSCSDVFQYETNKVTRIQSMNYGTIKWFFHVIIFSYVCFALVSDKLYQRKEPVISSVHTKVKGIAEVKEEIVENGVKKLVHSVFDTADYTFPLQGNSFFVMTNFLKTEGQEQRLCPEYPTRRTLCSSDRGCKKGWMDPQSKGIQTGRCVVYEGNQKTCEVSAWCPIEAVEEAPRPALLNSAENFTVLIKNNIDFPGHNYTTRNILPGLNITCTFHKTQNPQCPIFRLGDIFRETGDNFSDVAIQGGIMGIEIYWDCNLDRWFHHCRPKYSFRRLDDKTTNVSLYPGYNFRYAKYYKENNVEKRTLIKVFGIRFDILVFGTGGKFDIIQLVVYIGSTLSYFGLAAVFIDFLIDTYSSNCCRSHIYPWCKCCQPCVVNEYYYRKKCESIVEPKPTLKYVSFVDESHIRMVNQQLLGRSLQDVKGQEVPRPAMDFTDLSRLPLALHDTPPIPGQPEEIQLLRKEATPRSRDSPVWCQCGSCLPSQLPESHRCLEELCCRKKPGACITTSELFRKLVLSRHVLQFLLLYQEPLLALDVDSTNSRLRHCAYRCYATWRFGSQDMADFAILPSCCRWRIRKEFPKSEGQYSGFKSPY

| inhibition [1] [%] | inhibition [2] [%] | SMILES | Activity (Peritoneal macrophage) [%] |
| --- | --- | --- | --- |
| 60 | 23.2 | CCCCCCCCCC(=O)OCc1cn(-c2ccccc2)nn1 | 42.53 |
| 11.1 | 2.2 | CCCCCC(=O)OCc1cn(-c2ccc(Cl)cc2)nn1 | 34.19 |
| 73.5 | 80.1 | CC(=O)OCc1cnn(-c2ccccc2)n1 | 38.5 |
| 9.86 | 1.17 | CCCCCCCCCC(=O)OCc1cn(-c2cc(Cl)ccc2Cl)nn1 | 10 |
| 14.2 | 2.96 | O=C(OCc1cn(-c2cc(Cl)cc(Cl)c2)nn1)c1ccccc1 | 24.02 |
| 37.1 | 16.1 | CCCCOCc1cnn(-c2ccccc2)n1 | 27.19 |
| 49.3 | 56.7 | CCOCc1cn(-c2ccccc2)nn1 | 52.73 |
| 44.8 | 45 | CCOCc1cn(-c2ccc(OC)cc2)nn1 | 20.66 |
| 11 | 3 | O=C(OCc1cn(-c2cc(Cl)ccc2Cl)nn1)c1ccccc1 | 26.66 |
| 32.1 | 16.1 | O=C(OCc1cn(-c2ccccc2)nn1)c1ccccc1 | 58.1 |
| 25.1 | 20.1 | CCCOCc1cn(-c2ccccc2)nn1 | 14.66 |
| 31.4 | 51.3 | CCCCOCc1cn(-c2ccc(OC)cc2)nn1 | 27.66 |
| 20.6 | 7.28 | O=C(OCc1cn(-c2cc(Cl)ccc2Cl)nn1)C1CCCC1 | 22.66 |
| 60.6 | 26.8 | O=C(OCc1cn(-c2ccc(Cl)cc2)nn1)c1ccccc1 | 45.73 |
|  | 8.15 | CCCCC(=O)OCc1cn(-c2ccc(OC)cc2)nn1 | 46.3 |
| 36.5 | 51.2 | CCOCc1cn(-c2cc(Cl)cc(Cl)c2)nn1 | 34 |

| inhibition [1] [%] | inhibition [2] [%] | SMILES | Activity (Peritoneal macrophage) [%] |
| --- | --- | --- | --- |
| 35.8 | 15.1 | CCCCOCc1cn(-c2ccc(Cl)cc2)nn1 | 30.33 |
| 15.6 | 35.8 | CCCOCc1cn(-c2ccc(OC)cc2)nn1 | 13.03 |
| 32.5 | 62.4 | CCCOCc1cn(-c2ccc(Cl)cc2)nn1 | 26.66 |
| 29.4 | 9.12 | COc1ccc(-n2cc(COC(C)=O)nn2)cc1 | 15 |
| 44.3 | 50.3 | COc1ccc(-n2cc(C=O)nn2)cc1 | 17.92 |
| 24.4 | 10.6 | COc1ccc(-n2cc(COC(=O)c3ccccc3)nn2)cc1 | 10.66 |
| 29.6 | 10.2 | O=C(OCc1cnn(-c2ccccc2)n1)C1CCCC1 | 43.04 |
| 31.5 | 42.1 | O=Cc1cnn(-c2ccccc2)n1 | 41.65 |
| 24 | 46.6 | CCCOCc1cn(-c2cc(Cl)ccc2Cl)nn1 | 22.66 |
| 11.4 | 41.1 | OCc1cn(-c2cc(Cl)cc(Cl)c2)nn1 | 30.55 |
| 28.3 | 38.1 | OCc1cn(-c2cc(Cl)ccc2Cl)nn1 | 12.09 |
| 26.6 | 41.2 | CCCOCc1cnn(-c2ccccc2)n1 | 13.33 |
| 81.3 | 88.2 | O=C(OCc1cnn(-c2ccccc2)n1)c1ccccc1 | 36.94 |
| 76.6 | 71.2 | CC(=O)OCc1cn(-c2cc(Cl)ccc2Cl)nn1 | 32 |
| 22.5 | 26.1 | OCc1cn(-c2ccc(Cl)cc2)nn1 | 15.57 |
